Assay results published in patent US20050064014A1, “Use of cystathionine” (priority 2001, published 2005).
In brackets after ≈: the same amount, converted by molar mass. Read-outs that look alike come from different tables or passages of the source.

Legend:
[1] = type: physicochemical; conditions: for L-cystathionine (3 mM) Evaluated loss / L-cysteine (3 mM) Evaluated loss / L-cysteine (3 mM) Free cysteine / L-cysteine (3 mM) Oxidized cysteine: 121° C. for 15 minutes in an autoclave
Method: (§1) The stability of the cystathionine compared to that of cysteine was tested with deionized water and in various liquid enteral formulae (SONDALIS and REABILAN). REABILAN and SONDALIS (registered trademarks) are different enteral compositions comprising 35% of energy in the form of lipids, 50-52.5% in the form of carbohydrates, in particular of maltodextrins and starches, 12.5-15% in the form of peptides or proteins, and also comprising vitamins, mineral salts and other compounds such as taurine or L-camitine.
Stability Under Harsh Sterilization Conditions (121° C.-15 min) at 3 mM Concentration
Unlike cysteine, the cystathionine is found to be very stable.
In the enteral formulae, and after heat treatment, the amount of available cysteine decreases very substantially, and the relative loss of cysteine increases when the amount added decreases.

[2] = Maximum solubility in water; type: physicochemical; conditions: water at 25° C.; read-out: maximum level of solubility in water
Method: (§2) The cystathionine was added at its maximum level of solubility in water at 25° C., i.e. 0.6 mg/mL of water. The mixture was treated at 121° C. for 15 minutes in an autoclave and was analyzed.

glutathione status = experiment: Physiological effectiveness: diet supplementation in infected rats (sepsis), glutathione concentration; type: in vivo; conditions: standard protein diet supplemented with cystathionine, compared with cysteine positive control group
Excerpt: Groups of sick rats receiving differentiated diets are compared with regard to the glutathione concentration in various organs but especially in the liver. The liver is in fact the major organ for regulating glutathione synthesis in terms of the whole body. The compared groups received a standard protein diet supplemented either with an amino acid considered to be neutral with respect to glutathione (alanine) (control group), or with cysteine (positive control group), or with cystathionine (test group). A group of animals which are not sick is also realized (normal group).

[3] = Stability under THA sterilization conditions (140° C.-15″), 43 mM in SONDALIS; type: physicochemical; conditions: THA sterilization 140° C.-15″
Method: Stability Under THA Sterilization Conditions (140° C.-15''), at High Concentration (43 mM) in […] […] The THA conditions therefore conventionally induce much less degradation than those described above, but slightly more than industrial UHT conditions. The high concentration (43 mM) was chosen because it falls within the average of that which may be recommended in enteral nutrition products. Under these conditions, the losses of cysteine are lower than for the harsh sterilization conditions (121° C.-15') but remain much too high (27%) for use in a nutrition product.

[4] = Stability in water, autoclave 121° C. for 15 minutes; type: physicochemical; conditions: after 121° C. for 15 minutes
Method: as §1, §2
In water, cystathionine is very stable, even after treatment at 121° C. for 15 minutes, since the degree of recovery is 100%, and the cysteine is slightly oxidized to cystine (6%).

[5] = test system: hepatic glutathione status; conditions: rats with sepsis, diet supplemented with cysteine; cited from earlier work

## N[C@@H](CCSC[C@H](N)C(=O)O)C(=O)O [L-cystathionine, cystathionine]
[1]
  stability in the enteral formulae before heat treatment: very stable
[1]; REABILAN
  L-cystathionine (3 mM) Evaluated loss: 0%
[1]; SONDALIS
  L-cystathionine (3 mM) Evaluated loss: 17%
[2]
  solubility: 600 µg/mL (≈ 2700 µM)
Glutathione status
  glutathione concentration: level equivalent to that of the positive control group
[3]
  L-cystathionine (43 mM) Evaluated loss: 4%
  L-cystathionine (43 mM) Non-degraded form: 96%
[3]; listed as cystathionine
  L-cystathionine (43 mM) Evaluated loss: at the limit of reproducibility of the assaying method

## N[C@@H](CS)C(=O)O [L-cysteine, cysteine]
[1]
  stability in the enteral formulae before heat treatment: relatively unstable
[1]; REABILAN
  L-cysteine (3 mM) Evaluated loss: 83%
  L-cysteine (3 mM) Free cysteine: 12%
  L-cysteine (3 mM) Oxidized cysteine: 5%
[1]; SONDALIS
  L-cysteine (3 mM) Evaluated loss: 86%
  L-cysteine (3 mM) Free cysteine: 11%
  L-cysteine (3 mM) Oxidized cysteine: 3%
[3]
  L-cysteine (43 mM) Evaluated loss: 27%
  L-cysteine (43 mM) Free cysteine: 66%
  L-cysteine (43 mM) Oxidized cysteine: 7%
[3]; listed as cysteine
  L-cysteine (43 mM) Evaluated loss: 27%
[4]
  oxidized to cystine: 6%
[5]
  hepatic glutathione status: re-establish hepatic glutathione status at the level of a normal animal
